# Laboratory results as given in article PMC4501006, “Preliminary Characterization and In Vivo Studies of Structurally Identical ^18F- and ^125I-Labeled Benzyloxybenzenes for PET/SPECT Imaging of β-Amyloid Plaques” (Scientific Reports, 2015).
# Where “and” joins values, the source holds several entries; their conditions need not be identical. Equal entries are not always repeated.
# Tests used:
# Aβ42 aggregates = Aβ42 aggregates (Homo sapiens, UniProt P05067); experiment: Competition binding assay using [125I]4 as radio-ligand; settings: inhibition of [125I]4 binding to Aβ42 aggregates
# Excerpt: The actual binding affinities agreed well with values predicted by the CoMFA and CoMSIA models, with pKi values deviating by less than 0.5 log unit. This satisfactory result strongly validated the reliability of the established 3D-QSAR models. This ability to accurately predict the binding activities of new benzyloxybenzene derivatives will be of great help for future efforts to design new potent Aβ imaging agents.
# [1] = In vivo metabolism (biostability), HPLC analysis of organ samples; settings: ICR mice, i.v.
# Experimental: All four radioactive ligands degraded to two corresponding polar radioactive products with shorter retention times. […] The good in vivo biostability of these compounds enhances their potential for SPECT mapping of the brain. […] In the plasma, all four ligands were rapidly converted to polar metabolites, leaving only approximately 10% of the parent tracers at 60 min. […] In contrast, the breakdown of [^125I]7a and [^125I]12a was so rapid that almost negligible amounts of parent tracers remained at 30 min (8.8% and 6.3%, respectively). The polar and hydrophilic metabolites metabolized by the liver could be absorbed by the intestine and excreted through the urine, in accordance with the biodistribution results. The rapid metabolism in the liver may be another reason for the faster clearance of these compounds from the normal brain. For structurally identical molecules labeled with radioactive isotopes at different positions, the in vivo metabolic pathways were expected to be the same. However, as only radioactive products can be detected with PET/SPECT scanners, different pharmacokinetics of the radioactive components could lead to different imaging results. […] The dual radiolabeled identical benzyloxybenzene derivatives in this study were expected to undergo the same metabolic reactions, generating different radioactive metabolites. Differences in the biochemical characteristics of the radiometabolites including absorption, distribution, metabolism and excretion are responsible for the discrepancy in the pharmacokinetics of the radioactivity.
# [2] = In vivo biodistribution in normal ICR mice; settings: i.v.
# Experimental: Histograms of brain and intestine uptake were presented in Fig. 6 for comparison, while detailed data concerning the in vivo biodistribution in normal ICR mice were collected in Table S3 in Supplementary information. […] [^125I]7a and [^125I]12a were rapidly cleared from the normal brain, with only small amounts of radioactivity remaining at 60 min post-injection (0.55% ID/g for [^125I]7a and 0.37% ID/g for [^125I]12a). […] In addition, no significant deiodination was observed (less than 0.5% ID in the thyroid at 60 min).
# As the specific activity of ^18F-labeled ligands (about 60 GBq/μmol) was slightly lower than that of corresponding no-carrier-added ^125I-labeled ligands (81 GBq/μmol), the impact of specific activity on pharmacokinetics was studied. In vivo biodistribution of radioactivity after injection of carrier-added [^125I]7a with equal specific activity to corresponding [^18F]7a (60 GBq/μmol) was conducted in normal ICR mice through the same procedure.
# A structural model of an Aβ fiber (PDB ID: 2LMO) derived from solid state NMR was downloaded from the RCSB Protein Data Bank (www.rcsb.org/pdb). Geometric optimization was performed using Gaussian 09 at the B3LYP/6–31 G and 3-21G levels in the water phase. Molecular docking was performed using AutoDock4.0, and the docking results were graphed with VMD 1.9.1 software. SYBYL-X 1.1 software was used to predict the binding affinities with previously constructed 3D-QSAR models. All reagents for chemical synthesis were used as purchased without further purification. [^125I]NaI was purchased from PerkinElmer and ^18F^– was kindly provided by the Chinese PLA General Hospital. ^1H and ^13C NMR spectra were recorded on a Bruker Avance III NMR spectrometer (400 MHz for ^1H; 101 MHz for ^13C) in CDCl3 or DMSO-d6 solutions at room temperature. Mass spectra were acquired with a GCT CA127 Micronass UK instrument. X-ray crystallographic data of compound 12a were collected on a Bruker Smart APEX II diffractometer (Bruker Co., Germany) and deposited at the Cambridge Crystallographic Data Centre as supplementary publication (no. CCDC 1063679). HPLC analysis was performed on a Shimadzu SCL-20 AVP equipped with a Bioscan Flow Count 3200 NaI/PMT γ-radiation scintillation detector and a SPD-20A UV detector, λ = 254 nm. A Venusil MP C18 reverse phase column (Agela Technologies, 5 μm, 4.6 × 250 mm) was used for separations and purity determinations with a binary gradient system (acetonitrile: water = 80%: 20%) at a 1.0 mL/min flow rate. Fluorescent observation was performed on the Axio Observer Z1 inverted fluorescence microscope (Zeiss, Germany) equipped with a DAPI filter set (excitation, 405 nm). Post-mortem brain sections from an autopsy-confirmed AD subject and a control subject were acquired from the Chinese Brain Bank. Transgenic mice (APPswe/PSEN1, male) and wild-type mice (C57BL6, male) were purchased from the Institute of Laboratory Animal Science, Chinese Academy of Medical Sciences. Normal ICR mice (20–22 g, male) were used for in vivo biodistribution, dynamic PET/CT and SPECT/CT scans, and biostability experiments. All experiments on mice were performed in accordance with the guidelines approved by the animal care committee of Beijing Normal University and Xiamen University.
# [3] = Partition coefficient determination (log D); format: physicochemical
# Experimental: An ideal Aβ imaging probe would combine a high binding affinity to Aβ plaques and excellent pharmacokinetics with high initial brain uptake and rapid washout from normal brain regions. Thus, the partition coefficients of these four radiolabeled ligands were determined to estimate their ability to penetrate the BBB.
# Aβ plaques = Aβ plaques (Homo sapiens, UniProt P05067); experiment: In vitro autoradiography on AD human brain sections; format: binding
# Excerpt: Figure 5 In vitro autoradiography of [^125I]7a (a–d), [^18F]7a (e–h), [^125I]12a (i–l) and [^18F]12a (m–p).
# Chain of Aβ42 aggregates (P05067 672-713 limits assumed): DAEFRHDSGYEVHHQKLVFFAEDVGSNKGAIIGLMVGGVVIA
# Chain of Aβ plaques (P05067 672-711 limits assumed): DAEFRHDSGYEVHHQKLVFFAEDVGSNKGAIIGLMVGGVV
smiles,measurement,setting,value
FCCOc1ccc(OCc2ccc(I)cc2)cc1 [7a],Ki,Aβ42 aggregates,0.0195 µM
FCCOc1ccc(COc2ccc(I)cc2)cc1 [12a],Ki,Aβ42 aggregates,0.0239 µM
FCCOc1ccc(COc2ccc([125I])cc2)cc1 [[^125I]12a],"Percentage of Parent tracer, Brain",[1]; post-injection time 2 min,92.1%
same,"Percentage of Parent tracer, Feces",[1]; post-injection time 2 min,0.0%
same,"Percentage of Parent tracer, Liver",[1]; post-injection time 2 min,49.1%
same,"Percentage of Parent tracer, Plasma",[1]; post-injection time 2 min,88.4%
same,"Percentage of Parent tracer, Urine",[1]; post-injection time 2 min,0.0%
same,"Percentage of Parent tracer, Brain",[1]; post-injection time 10 min,82.1%
same,"Percentage of Parent tracer, Feces",[1]; post-injection time 10 min,0.0%
same,"Percentage of Parent tracer, Liver",[1]; post-injection time 10 min,21.5%
same,"Percentage of Parent tracer, Plasma",[1]; post-injection time 10 min,29.6%
same,"Percentage of Parent tracer, Urine",[1]; post-injection time 10 min,0.0%
same,"Percentage of Parent tracer, Brain",[1]; post-injection time 30 min,78.3%
same,"Percentage of Parent tracer, Feces",[1]; post-injection time 30 min,0.0%
same,"Percentage of Parent tracer, Liver",[1]; post-injection time 30 min,6.3%
same,"Percentage of Parent tracer, Plasma",[1]; post-injection time 30 min,26.3%
same,"Percentage of Parent tracer, Urine",[1]; post-injection time 30 min,0.0%
same,"Percentage of Parent tracer, Brain",[1]; post-injection time 60 min,68.6%
same,"Percentage of Parent tracer, Feces",[1]; post-injection time 60 min,0.0%
same,"Percentage of Parent tracer, Liver",[1]; post-injection time 60 min,3.8%
same,"Percentage of Parent tracer, Plasma",[1]; post-injection time 60 min,4.68%
same,"Percentage of Parent tracer, Urine",[1]; post-injection time 60 min,0.0%
same,brain2 min/brain60 min ratio,[2],14.2
same,"Biodistribution of radioactivity, blood",[2]; 2 min,4.96 ± 0.35 % injected dose per gram
same,"Biodistribution of radioactivity, brain",[2]; 2 min,> 5 % injected dose per gram and 5.27 % injected dose per gram
same,"Biodistribution of radioactivity, heart",[2]; 2 min,6.61 ± 1.42 % injected dose per gram
same,"Biodistribution of radioactivity, intestine",[2]; 2 min,4.81 ± 0.97 % injected dose per organ
same,"Biodistribution of radioactivity, kidney",[2]; 2 min,9.16 ± 0.59 % injected dose per gram
same,"Biodistribution of radioactivity, liver",[2]; 2 min,18.12 ± 2.34 % injected dose per gram
same,"Biodistribution of radioactivity, lung",[2]; 2 min,10.30 ± 2.16 % injected dose per gram
same,"Biodistribution of radioactivity, muscle",[2]; 2 min,3.47 ± 0.45 % injected dose per gram
same,"Biodistribution of radioactivity, pancreas",[2]; 2 min,6.45 ± 0.56 % injected dose per gram
same,"Biodistribution of radioactivity, spleen",[2]; 2 min,2.85 ± 0.30 % injected dose per gram
same,"Biodistribution of radioactivity, stomach",[2]; 2 min,1.30 ± 0.14 % injected dose per organ
same,"Biodistribution of radioactivity, thyroid",[2]; 2 min,0.13 ± 0.02 % injected dose per organ
same,"Biodistribution of radioactivity, brain","[2]; 2 min, listed as [125I]12a",5.27 ± 0.98 % injected dose per gram
same,"Biodistribution of radioactivity, blood",[2]; 10 min,3.88 ± 0.79 % injected dose per gram
same,"Biodistribution of radioactivity, brain",[2]; 10 min,2.28 ± 0.27 % injected dose per gram
same,"Biodistribution of radioactivity, heart",[2]; 10 min,2.12 ± 0.16 % injected dose per gram
same,"Biodistribution of radioactivity, intestine",[2]; 10 min,10.68 ± 2.60 % injected dose per organ
same,"Biodistribution of radioactivity, kidney",[2]; 10 min,7.61 ± 1.23 % injected dose per gram
same,"Biodistribution of radioactivity, liver",[2]; 10 min,12.07 ± 1.06 % injected dose per gram
same,"Biodistribution of radioactivity, lung",[2]; 10 min,4.16 ± 0.26 % injected dose per gram
same,"Biodistribution of radioactivity, muscle",[2]; 10 min,1.31 ± 0.12 % injected dose per gram
same,"Biodistribution of radioactivity, pancreas",[2]; 10 min,2.44 ± 0.28 % injected dose per gram
same,"Biodistribution of radioactivity, spleen",[2]; 10 min,1.29 ± 0.06 % injected dose per gram
same,"Biodistribution of radioactivity, stomach",[2]; 10 min,1.34 ± 0.16 % injected dose per organ
same,"Biodistribution of radioactivity, thyroid",[2]; 10 min,0.13 ± 0.01 % injected dose per organ
same,"Biodistribution of radioactivity, blood",[2]; 30 min,3.89 ± 0.53 % injected dose per gram
same,"Biodistribution of radioactivity, brain",[2]; 30 min,0.81 ± 0.06 % injected dose per gram
same,"Biodistribution of radioactivity, heart",[2]; 30 min,1.67 ± 0.09 % injected dose per gram
same,"Biodistribution of radioactivity, intestine",[2]; 30 min,16.61 ± 3.88 % injected dose per organ
same,"Biodistribution of radioactivity, kidney",[2]; 30 min,7.44 ± 0.90 % injected dose per gram
same,"Biodistribution of radioactivity, liver",[2]; 30 min,8.68 ± 1.02 % injected dose per gram
same,"Biodistribution of radioactivity, lung",[2]; 30 min,3.56 ± 0.38 % injected dose per gram
same,"Biodistribution of radioactivity, muscle",[2]; 30 min,0.99 ± 0.17 % injected dose per gram
same,"Biodistribution of radioactivity, pancreas",[2]; 30 min,1.75 ± 0.10 % injected dose per gram
same,"Biodistribution of radioactivity, spleen",[2]; 30 min,1.03 ± 0.10 % injected dose per gram
same,"Biodistribution of radioactivity, stomach",[2]; 30 min,2.02 ± 0.49 % injected dose per organ
same,"Biodistribution of radioactivity, thyroid",[2]; 30 min,0.19 ± 0.04 % injected dose per organ
same,"Biodistribution of radioactivity, blood",[2]; 60 min,3.01 ± 1.07 % injected dose per gram
same,"Biodistribution of radioactivity, brain",[2]; 60 min,0.37 % injected dose per gram
same,"Biodistribution of radioactivity, heart",[2]; 60 min,1.17 ± 0.45 % injected dose per gram
same,"Biodistribution of radioactivity, intestine",[2]; 60 min,18.84 ± 8.75 % injected dose per organ
same,"Biodistribution of radioactivity, kidney",[2]; 60 min,6.09 ± 2.17 % injected dose per gram
same,"Biodistribution of radioactivity, liver",[2]; 60 min,4.64 ± 0.77 % injected dose per gram
same,"Biodistribution of radioactivity, lung",[2]; 60 min,3.11 ± 1.02 % injected dose per gram
same,"Biodistribution of radioactivity, muscle",[2]; 60 min,1.20 ± 0.26 % injected dose per gram
same,"Biodistribution of radioactivity, pancreas",[2]; 60 min,1.37 ± 0.41 % injected dose per gram
same,"Biodistribution of radioactivity, spleen",[2]; 60 min,0.84 ± 0.31 % injected dose per gram
same,"Biodistribution of radioactivity, stomach",[2]; 60 min,2.27 ± 0.40 % injected dose per organ
same,"Biodistribution of radioactivity, thyroid",[2]; 60 min,0.34 ± 0.10 % injected dose per organ
same,"Biodistribution of radioactivity, brain","[2]; 60 min, listed as [125I]12a",0.37 ± 0.06 % injected dose per gram
same,logD,[3],3.62 ± 0.15
same,"in vitro autoradiography, plaque labeling",Aβ plaques,specifically label Aβ deposits
